Measured values published in publication PMC10907374, “G2019S selective LRRK2 kinase inhibitor abrogates mitochondrial DNA damage” (NPJ Parkinson's Disease, 2024).
pIC50: −log10 of the molar value. Entries after “also recorded” stand apart in the source; their conditions may differ.

Tests used:
[1] = biological target: T1, LRRK2 in healthy control lymphoblastoid cells (LCLs) (Homo sapiens, UniProt Q5S007); assay: LRRK2 pSer935 western immunoblot in healthy control-derived LCLs; format: cell-based; conditions: 10 and 100 nM, 2 h
T1 construct: Due to the differing endogenous LRRK2 levels; host or cells: healthy subject control-derived lymphoblastoid cell lines (n = 2)
T1 sequence (Q5S007 whole entry): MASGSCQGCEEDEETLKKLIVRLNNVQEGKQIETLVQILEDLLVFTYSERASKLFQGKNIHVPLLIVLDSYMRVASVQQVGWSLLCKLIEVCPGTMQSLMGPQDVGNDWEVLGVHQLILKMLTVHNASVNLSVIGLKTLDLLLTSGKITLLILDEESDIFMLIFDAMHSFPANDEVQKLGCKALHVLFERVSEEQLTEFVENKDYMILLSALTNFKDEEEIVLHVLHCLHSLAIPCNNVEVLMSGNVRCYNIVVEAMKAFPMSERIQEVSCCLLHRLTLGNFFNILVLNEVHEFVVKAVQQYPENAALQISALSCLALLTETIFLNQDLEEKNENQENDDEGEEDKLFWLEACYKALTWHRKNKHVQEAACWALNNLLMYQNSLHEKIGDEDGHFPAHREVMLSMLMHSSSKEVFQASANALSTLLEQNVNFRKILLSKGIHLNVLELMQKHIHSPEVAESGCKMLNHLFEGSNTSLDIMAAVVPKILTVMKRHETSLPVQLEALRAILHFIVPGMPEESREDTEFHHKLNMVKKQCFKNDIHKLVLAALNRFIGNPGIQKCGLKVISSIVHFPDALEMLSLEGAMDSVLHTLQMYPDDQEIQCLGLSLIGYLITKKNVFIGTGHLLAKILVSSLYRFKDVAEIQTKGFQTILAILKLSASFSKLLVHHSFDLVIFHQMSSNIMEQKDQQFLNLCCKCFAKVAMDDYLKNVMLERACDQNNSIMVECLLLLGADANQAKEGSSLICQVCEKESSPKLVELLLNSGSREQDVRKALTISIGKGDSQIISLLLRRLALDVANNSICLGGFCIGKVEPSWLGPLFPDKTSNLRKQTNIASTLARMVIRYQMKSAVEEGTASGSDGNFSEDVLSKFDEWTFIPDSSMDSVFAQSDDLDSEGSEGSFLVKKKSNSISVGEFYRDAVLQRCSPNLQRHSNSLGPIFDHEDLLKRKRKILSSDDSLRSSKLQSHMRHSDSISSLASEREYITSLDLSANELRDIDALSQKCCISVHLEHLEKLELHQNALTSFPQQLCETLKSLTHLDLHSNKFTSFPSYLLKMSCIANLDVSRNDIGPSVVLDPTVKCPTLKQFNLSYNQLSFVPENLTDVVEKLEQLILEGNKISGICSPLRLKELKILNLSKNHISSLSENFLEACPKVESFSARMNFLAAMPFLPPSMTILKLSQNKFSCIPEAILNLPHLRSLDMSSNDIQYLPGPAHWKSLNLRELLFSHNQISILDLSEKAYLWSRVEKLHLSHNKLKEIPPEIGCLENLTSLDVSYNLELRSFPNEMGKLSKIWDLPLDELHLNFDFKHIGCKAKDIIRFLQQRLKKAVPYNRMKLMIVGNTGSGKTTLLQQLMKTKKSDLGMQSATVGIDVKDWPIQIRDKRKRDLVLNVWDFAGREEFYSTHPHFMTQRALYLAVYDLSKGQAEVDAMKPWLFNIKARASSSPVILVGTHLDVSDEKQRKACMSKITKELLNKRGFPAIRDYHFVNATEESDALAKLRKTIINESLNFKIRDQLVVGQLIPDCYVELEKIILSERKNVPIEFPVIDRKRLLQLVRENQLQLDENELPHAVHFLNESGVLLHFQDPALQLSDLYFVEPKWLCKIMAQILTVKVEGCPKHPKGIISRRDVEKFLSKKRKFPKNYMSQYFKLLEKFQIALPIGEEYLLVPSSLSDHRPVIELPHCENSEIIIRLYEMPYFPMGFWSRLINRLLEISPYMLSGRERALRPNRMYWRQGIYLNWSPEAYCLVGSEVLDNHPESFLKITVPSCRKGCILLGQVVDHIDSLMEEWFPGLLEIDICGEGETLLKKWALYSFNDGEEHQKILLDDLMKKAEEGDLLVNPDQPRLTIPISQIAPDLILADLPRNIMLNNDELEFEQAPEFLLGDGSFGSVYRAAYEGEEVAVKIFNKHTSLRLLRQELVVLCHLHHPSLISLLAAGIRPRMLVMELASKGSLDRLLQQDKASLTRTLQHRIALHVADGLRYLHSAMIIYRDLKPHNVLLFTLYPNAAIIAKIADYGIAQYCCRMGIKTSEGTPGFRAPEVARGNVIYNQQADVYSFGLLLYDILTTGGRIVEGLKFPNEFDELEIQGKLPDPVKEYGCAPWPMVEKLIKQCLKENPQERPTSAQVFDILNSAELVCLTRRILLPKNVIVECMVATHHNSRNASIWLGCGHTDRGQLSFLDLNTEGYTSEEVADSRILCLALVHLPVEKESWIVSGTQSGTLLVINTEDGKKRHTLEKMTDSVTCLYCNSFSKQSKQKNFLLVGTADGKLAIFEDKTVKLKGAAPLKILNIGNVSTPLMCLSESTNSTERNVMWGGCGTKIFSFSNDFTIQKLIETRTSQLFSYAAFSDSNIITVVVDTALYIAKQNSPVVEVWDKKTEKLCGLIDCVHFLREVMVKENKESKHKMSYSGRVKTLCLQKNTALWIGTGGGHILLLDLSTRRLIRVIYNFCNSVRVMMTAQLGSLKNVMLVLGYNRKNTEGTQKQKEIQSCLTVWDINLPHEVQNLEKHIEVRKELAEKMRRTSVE
Experimental: PD patient G2019S LRRK2 (n = 2) and healthy subject control (n = 2)-derived LCLs were obtained from the NINDS Coriell biorepository (ID numbers are ND00011, ND00264, ND01618, ND02559). […] LCLs were cultured at 37 °C, 5% CO2, in RPMI-1640 (Sigma-Aldrich, R8758), 15% heat-inactivated fetal bovine serum (VWR Seradigm, 97068-091) and 0.5% Penicillin/Streptomycin (Corning, 30-002-CI). […] All in vitro experiments were repeated at least three times from distinct samples.
(§1) For LRRK2-WT or G2019S-LRRK2, ~1.5 million cells were pelleted and resuspended in 75 μl of lysis buffer [(RIPA Buffer (Sigma-Aldrich, R0278-50ML), protease inhibitor cocktail (Sigma-Aldrich, P8340), and Halt phosphatase inhibitor cocktail (Thermo Fisher, 78420)]. For LCLs, five million cells were pelleted and resuspended in 100 µl of lysis buffer. For both types of cells lysates were centrifuged at 10,000 × g after a 10 min incubation on ice, and the supernatant was collected. Protein was quantified using the DC protein assay (Bio-Rad, 5000112). In total, 50 μg of protein was loaded for HEK293 LRRK2-WT or G2019S-LRRK2 cells. […] Fluorescence intensities were quantified using ImageStudio Lite software (LI-COR), and the signal from the protein of interest was normalized to the fluorescence intensity of either LRRK2 or β-actin. […]

human LRRK2 (WT-LRRK2) = biological target: T2, human LRRK2 (WT-LRRK2) (Homo sapiens, UniProt Q5S007); assay: LRRK2 pSer935 quantitative western immunoblot in HEK293 cells stably overexpressing WT-LRRK2; format: cell-based
T2 construct: WT-LRRK2 or G2019S-LRRK2 overexpressing cells show expression of LRRK2 pSer1292 and full-length LRRK2; expressed in transfected cells
Experimental: (§2) Cells were plated at a density of 0.3 × 10^6 cells in a 6-well dish and treated at ~40–50% confluency. At the time of harvest, cells were collected and either protein collected or DNA extracted as described below.
as §1, with “cells. Due to the differing endogenous LRRK2 levels, 40 µg of ND02559, 60 µg of ND00264, or 100 µg of ND00011 and ND01618 of protein sample was loaded. Protein samples were incubated at 100 °C for 5 min with NuPAGE Sample loading dye (Thermo Fisher, NP0007) and dithiothreitol as reducing agent.” for “cells.”

[2] = biological target: T3, G2019S variant of human LRRK2 (G2019S-LRRK2) (Homo sapiens, UniProt Q5S007, G2019S); assay: LRRK2 pSer935 quantitative western immunoblot in HEK293 cells stably overexpressing G2019S-LRRK2; format: cell-based
T3 construct: WT-LRRK2 or G2019S-LRRK2 overexpressing cells show expression of LRRK2 pSer1292 and full-length LRRK2; expressed in transfected cells
T3 sequence (Q5S007 whole entry G2019S): as the sequence (Q5S007 whole entry) above, with G2019S counted along it
Experimental: as §2
For LRRK2-WT or G2019S-LRRK2, ~1.5 million cells were pelleted and resuspended in 75 μl of lysis buffer [(RIPA Buffer (Sigma-Aldrich, R0278-50ML), protease inhibitor cocktail (Sigma-Aldrich, P8340), and Halt phosphatase inhibitor cocktail (Thermo Fisher, 78420)]. For LCLs, five million cells were pelleted and resuspended in 100 µl of lysis buffer. For both types of cells lysates were centrifuged at 10,000 × g after a 10 min incubation on ice, and the supernatant was collected. Protein was quantified using the DC protein assay (Bio-Rad, 5000112). In total, 50 μg of protein was loaded for HEK293 LRRK2-WT or G2019S-LRRK2 cells. Due to the differing endogenous LRRK2 levels, 40 µg of ND02559, 60 µg of ND00264, or 100 µg of ND00011 and ND01618 of protein sample was loaded. Protein samples were incubated at 100 °C for 5 min with NuPAGE Sample loading dye (Thermo Fisher, NP0007) and dithiothreitol as reducing agent. After 4–20% SDS-PAGE, the blots were blocked in 5% w/v nonfat dry milk in 1X PBST (0.05% Tween 20). For our investigations, the following primary antibodies were used: mouse anti-LRRK2 N241a (Antibodies INC, 75-253, 1:5000 for HEK293 cells and 1:2000 for LCLs), rabbit anti-LRRK2 pS935 (Abcam, ab133450, 1:10,000 for HEK293 cells and 1:2000 for LCLs), mouse anti-β-actin (Novus, 8H10D10, 1:10,000), and rabbit anti-LRRK2 pS1292 (Abcam, ab203181, 1:500). The blots were then probed with fluorescent-labeled secondary antibodies, IRDye donkey anti-mouse and anti-rabbit at 1:10,000 (LI-COR, 926-32212, 926-68072), and scanned using an Odyssey Imaging scanner (LI-COR). Fluorescence intensities were quantified using ImageStudio Lite software (LI-COR), and the signal from the protein of interest was normalized to the fluorescence intensity of either LRRK2 or β-actin. […]

[3] = tested on: heterozygous G2019S LRRK2 PD patient-derived LCLs; parameters: method as in PMID 33057100; conditions: acute treatment (1.5 h) ref 49; cited from earlier work

SMILES | effect on LRRK2 pSer935 (in words) [1] | pIC50 (human LRRK2 (WT-LRRK2); WT LRRK2 HEK293 cell line, 2 h treatment, 10 nM-1 μM titration, read-out: calculated half-maximal inhibition (IC50) of LRRK2 pSer935) | effect on LRRK2 pSer935 over the concentration range (in words) (human LRRK2 (WT-LRRK2); WT-LRRK2 cells, 10 nM up to 1 μM, 2 h) | pIC50 ([2]; G2019S LRRK2 HEK293 cell line, 2 h treatment, 10 nM-1 μM titration, read-out: calculated half-maximal inhibition (IC50) of LRRK2 pSer935) | decrease in LRRK2 pSer935 levels ([2]; G2019S-LRRK2 cells, 10 nM, 2 h) | fold more potent on G2019S LRRK2 than WT LRRK2 (pS935 IC50) ([2]; HEK293 overexpressing cells) | mtDNA damage [3]
CC1=C(C(=O)Nc2ccc3[nH]nc(-c4ccnc(N5CCOCC5)c4)c3c2)C(C)(C)n2nnnc2N1C [EB-42168] | did not impact; also recorded: no change; also recorded: without a change | < 5.30 | no inhibition; also recorded: no change; also recorded: no detectable effect | 7.27 | no significant dephosphorylation | > 90 fold | 
C[C@@H]1CN(c2cc(-c3n[nH]c4ccc(OC5(C)CC5)cc34)ncn2)C[C@H](C)O1 [MLi-2, reference compound] |  |  |  |  |  |  | restored mtDNA damage to healthy control levels
